This is an account of results in publication PMC5496853, “Dual activation of neuronal G protein-gated inwardly rectifying potassium (GIRK) channels by cholesterol and alcohol” (Scientific Reports, 2017).

Assay [1] has as its target T1, GIRK2 (Mus musculus, UniProt P48542).
T1 construct: gene Kcnj6; amino acids 52-380
T1 sequence (P48542 52-380): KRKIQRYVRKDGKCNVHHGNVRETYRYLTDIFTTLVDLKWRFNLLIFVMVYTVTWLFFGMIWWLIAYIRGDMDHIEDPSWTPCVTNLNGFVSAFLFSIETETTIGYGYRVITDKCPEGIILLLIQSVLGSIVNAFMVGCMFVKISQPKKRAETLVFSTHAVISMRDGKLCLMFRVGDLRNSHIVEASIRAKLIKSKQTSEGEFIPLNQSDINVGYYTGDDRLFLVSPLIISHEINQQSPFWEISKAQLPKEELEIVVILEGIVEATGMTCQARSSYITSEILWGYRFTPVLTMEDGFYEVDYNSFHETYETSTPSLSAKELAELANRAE
The assay can be described thus: fluorescence (ACMA) K+ flux assay, purified channel reconstituted in liposomes. It counts as biochemical.

In assay [2] the target is T1, GIRK2. The assay can be described thus: fluorescence (ACMA) K+ flux assay, purified channel reconstituted in liposomes with brain PIP2. It counts as biochemical.

A word on the EC50: it is the concentration needed to bring the measured effect to its halfway point. `CCCCCCCC(=O)OC[C@H](COP(=O)(O)O[C@@H]1[C@H](O)[C@H](O)[C@@H](OP(=O)(O)O)[C@H](OP(=O)(O)O)[C@H]1O)OC(=O)CCCCCCC` [diC8-PIP2] returned a 50% effective concentration (EC50) at GIRK2 [1] of 25.1 ± 3.3 µM.
Consider `CCO` [ethanol], for which the “fluorescence (ACMA) K+ flux assay, purified channel reconstituted in liposomes w” value on GIRK2 [2] is listed as more than 20 mM.
